Source: paper PMC11558545, “Mechanistic Insights into the Function of 14-3-3 Proteins as Negative Regulators of Brassinosteroid Signaling in Arabidopsis” (Plant and Cell Physiology, 2024)
Square brackets hold non-standard residues; d marks the D form. Peptide text beside a SMILES is read from it. pS = N[C@@H](COP(=O)(O)O)C(=O)O

Key:
[1] = biological target: T1, Arabidopsis 14-3-3 isoform kappa (14-3-3κ) (Arabidopsis thaliana, UniProt P48348); assay: biochemical; type: binding
T1 construct: Full-length At14-3-3-κ^1−248 (Uniprot-ID P48348, http://uniprot.org); thioredoxin A (trxA) fusion (N, cleaved yes); 8xHis (N, cleaved yes); StrepII (N, cleaved yes); made in house; host or cells: E. coli BL21 (DE3) RIL
Source text: Full-length At14-3-3-κ^1−248 (Uniprot-ID P48348, http://uniprot.org), At14-3-3-λ^1−248 (P48349), At14-3-3-ω^1−259 (Q01525) or C-terminal truncated At14-3-3-κ^1−240, At14-3-3-λ^1−240 or At14-3-3-ω^1−237 isoforms and BIN2^7−380 from Arabidopsis were cloned from synthetic genes codon-optimized for expression in E. coli (Geneart, Thermofisher, Tauberbischofsheim, Germany) into vector pMH-HStrxT providing an N-terminal thioredoxin A (trxA) fusion protein containing 8xHis and StrepII affinity tags, and a tobacco etch virus protease (TEV) recognition site. Protein expression in E. coli BL21 (DE3) RIL grown to OD600nm= 0.6 was induced with 0.2 mM ispropyl β-D-galactoside in terrific broth at 16°C for 16 h. Cells were collected by centrifugation at 4500 × g for 30 min, washed in PBS buffer, centrifuged again at 4500 × g for 15 min and snap-frozen in liquid N2. For protein purification cells were resuspended in buffer A (20 mM Tris–HCl pH 8.0, 500 mM NaCl), and lysed by sonication (Branson DS450). The lysate was cleared by centrifugation at 7000 × g for 60 min and filtrated using a 0.45 µm molecular weight cutoff filter (Pall Corporation, Port Washington, NY, USA). The supernatant was loaded onto a Ni^2+ affinity column (HisTrap HP 5 mL, Cytiva Life Sciences, Freiburg im Breisgau, Germany), washed with buffer A and eluted in buffer A supplemented with 250 mM imidazole pH 8.0. […]

[2] = biological target: T2, 14-3-3 ω (biotinylated dimer on streptavidin chip) (Arabidopsis thaliana, UniProt Q01525); assay: Grating coupled interferometry (GCI) binding kinetics versus 14-3-3 ω; conditions: 25°C, 1-to-1 (2:2) binding model
T2 construct: Full-length At14-3-3-κ^1−248 (Uniprot-ID P48348, http://uniprot.org), At14-3-3-λ^1−248 (P48349), At14-3-3-ω^1−259 (Q01525); thioredoxin A (trxA) fusion (N, cleaved yes); 8xHis (N, cleaved yes); StrepII (N, cleaved yes); biotin (chemical, EZ-Link NHS-Biotin on amines); made in house; host or cells: E. coli BL21 (DE3) RIL
T2 sequence (Q01525 1-259): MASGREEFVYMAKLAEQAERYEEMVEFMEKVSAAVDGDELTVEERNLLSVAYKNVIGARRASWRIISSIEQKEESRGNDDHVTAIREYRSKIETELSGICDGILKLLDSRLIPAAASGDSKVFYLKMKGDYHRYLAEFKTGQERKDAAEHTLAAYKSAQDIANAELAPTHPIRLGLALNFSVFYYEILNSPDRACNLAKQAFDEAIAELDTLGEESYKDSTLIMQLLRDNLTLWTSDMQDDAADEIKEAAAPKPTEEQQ
Protocol: The binding kinetics of 14-3-3 ω versus the BZR1^169−175 and pBZR1^169−175 peptides (Table 1) were assessed on a Creoptix® WAVE system using a streptavidin-coated 4PCH WAVEchip® (long polycarboxylate matrix; Creoptix AG, Switzerland). Chips were first conditioned with 100 mM sodium borate pH 9.0, 1 m NaCl. Next, after the activation of the chip surface with a 1:1 mix of 400 mM N-(3-dimethylaminopropyl)-N’-ethylcarbodiimide hydrochloride and 100 mM N-[…] hydroxysuccinimide (Xantec, Germany), streptavidin was immobilized on the chip surface through the injection of 50 µg/ml streptavidin (ThermoFisher Scientific 43–4301) in 10 mM sodium acetate pH 5.0 until high density (∼10,000 pg/mm^2) was reached. Biotinylation of 14-3-3 ω for capturing onto streptavidin chip was performed by mixing equimolar amounts of protein and biotin (EZ-Link™ NHS-Biotin ThermoFisher Scientific). A total of 170 µM of 14-3-3 ω were incubated on ice with 170 µM of biotin (previously dissolved in water to 20 mM) for 1.5 min. The biotinylation was performed in 100 mM Hepes pH 8 and 150 mM NaCl. The biotinylated 14-3-3 ω dimer was purified by size exclusion chromatography in 20 mM Hepes pH 7.5 and 150 mM NaCl on a Superdex 10/300 increase column (Cytiva Life Sciences) to verify the homogeneity and to remove excess biotin. Gel-filtrated biotinylated 14-3-3 ω (0.45 mg/ml) was directly immobilized on the streptavidin-coated chip until a density of about 500 pg/ mm^2 was reached. The synthetic BRZ1^169−175 and pBZR1^169−175 peptides were dissolved in 20 mM Hepes and 150 mM NaCl buffer to a final concentration of 10 mM. Kinetic analysis of 14-3-3 ω and BZR1^169−175/pBZR1^169−175 interactions was performed at 25°C by flushing a dilution series of the analyte pBZR1 with a 2 dilution factor starting from 10 µM. Data analysis and data fitting were done using the Creoptix WAVEcontrol® software.

T1 sequence (P48348 whole entry, the tested form may be a part, canonical isoform): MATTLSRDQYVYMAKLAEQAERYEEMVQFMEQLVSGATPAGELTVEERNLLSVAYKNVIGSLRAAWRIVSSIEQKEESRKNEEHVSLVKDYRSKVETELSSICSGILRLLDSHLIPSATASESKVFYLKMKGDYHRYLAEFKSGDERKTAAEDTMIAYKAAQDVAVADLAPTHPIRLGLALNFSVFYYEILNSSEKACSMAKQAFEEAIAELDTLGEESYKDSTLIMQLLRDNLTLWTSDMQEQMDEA

Compound | Kd [1] [µM] | Kd ([2]; Fig. 2D and text, read-out: KD, dissociation constant (GCI)) [µM] | kon ([2]; Fig. 2D, read-out: ka, association rate constant) [M⁻¹ s⁻¹] | koff ([2]; Fig. 2D, read-out: kd, dissociation rate constant) [s⁻¹]
CC(C)C[C@H](NC(=O)[C@H](CCC(=O)O)NC(=O)CNC(=O)[C@@H](N)CCCNC(=N)N)C(=O)N[C@@H](Cc1ccccc1)C(=O)N[C@@H](COP(=O)(O)O)C(=O)N[C@@H](C)C(=O)N1CCC[C@H]1C(=O)O [pBKI1^265-272] (H-RGELF[pS]AP-OH) | 15.9 ± 0.4 | – | – | –
CC[C@H](C)[C@H](NC(=O)[C@@H](N)CCCNC(=N)N)C(=O)N[C@@H](CO)C(=O)N[C@@H](CC(N)=O)C(=O)N[C@@H](COP(=O)(O)O)C(=O)N[C@@H](C)C(=O)N1CCC[C@H]1C(=O)O [pBZR1^169-175] (H-RISN[pS]AP-OH) | – | 0.52 | 1.67e+06 | 0.87
